The text below walks through data of US20250179057A1, “MEK IMMUNE ONCOLOGY INHIBITORS AND THERAPEUTIC USES THEREOF” (Immuneering Corporation, priority 2022, published 2025).

Structures are written as SMILES.

In data set [1] the test system is phospho-ERK in SK-MEL-2 cells. The data set can be described thus: pERK/tERK ratio in SK-MEL-2 melanoma model. The class given is cell-based. Particulars: SK-MEL-2 (NRAS p.Q61R); 100 nM. The method, then: (§1) Compound (drug) treatment: Cells were plated in a 6-well plate at a density of 250,000-300,000 cells/well in 3 mL media and incubated 37° C. in a humidified, 5% CO2 incubator. […] These solutions were added to the cells (3 uL/well), mixed by swirling the plate, and incubated at 37° C. in a humidified, 5% CO2 incubator for 2 hours.
(§2) Cell lysis and protein estimation: Cells were washed with PBS, and scraped in 50 μL of lysis buffer containing protease and phosphatase inhibitors. Cell lysates were stored at −20° C. Cell lysates were thawed and spun at 12,000 rpm for one minute, 3 ul of the supernatant was added to 500 μL of Coomassie blue reagent following by 500 μL of water. […] Protein standards were used (0-20 mg/mL) to calculate protein concentrations of test samples.
(§3) All samples were heated at 95° C. for 5 minutes, cooled to room temperature and spun down. […] After the run, gel was removed and protein transfer was done using iBlot for 7 minutes, as per manufacturer's recommendations. After the transfer, nitrocellulose membrane was incubated on a shaker in 5 mL of blocking buffer at room temperature for 1 hr. The blot was then incubated overnight on a shaker in 5 ml of blocking buffer containing 0.2% Tween-20 and primary antibody, at room temperature. Anti-phospho-STAT3 antibody was used at a dilution of 1:500, the other 3 primary antibodies were used at a dilution of 1:1000.
(§4) Next day, the blot was washed 3 times for 10 min each with 10 mL of TBST followed by incubation on a shaker in 5 ml of blocking buffer containing 0.2% Tween-20 and 0.5 ul of the IRDye labeled secondary antibodies, diluted 1:10000, at room temperature for 1 hr. The blot was then washed 3 times for 10 min each with 10 mL of TBST and dried between sheets of paper towels. Imaging was done using LICOR's Odyssey imaging system, quantitation was done using their software, Image Studio version 3.1.
(§5) The nine models are described in Table 16.

The test system of data set [2] is phospho-MEK in SK-MEL-2 cells. The data set can be described thus: pMEK/tMEK ratio in SK-MEL-2 melanoma model. The data set is classed as cell-based. As to conditions: SK-MEL-2 (NRAS p.Q61R); 100 nM. The method, then:
as §1, §2, §3, §4, §5

The test system of data set [3] is phospho-MEK in MM127 cells. Briefly: pMEK/tMEK ratio in MM127 melanoma model. The class given is cell-based. As to conditions: MM127 (NRAS p.G13R, BRAF p.G464E); 100 nM. On the procedure: as §1, §2, §3, §4, §5
For data set [4], the system named is phospho-ERK in MM127 cells. Briefly: pERK/tERK ratio in MM127 melanoma model. The class given is cell-based. Particulars: MM127 (NRAS p.G13R, BRAF p.G464E); 100 nM. On the procedure:
as §1, §2, §3, §4, §5

The subject of data set [5] is phospho-ERK in A375 cells. Briefly: Cell-based pERK (pERK:tERK) in A375 cells. As to conditions: A375 (BRAF p.V600E); 100 nM. The method, then: Materials and Methods: A549 or A375 cells were seeded in 6-well plates at an appropriate seeding density on day 0. On day 2 or 3, after checking the health and confluency of cells, the media was aspirated and replaced with 1 mL media containing a predetermined concentration of compound and incubated for 2 hours. After 2 hours, the media was aspirated, and the cells washed 2 times with cold PBS. Cells were lysed on ice, with 50 uL 1×CST lysis buffer +1 mM PMSF for 5 minutes. After 5 minutes, cells were removed using a scraper and transferred to cold 1.5 mL tubes, and centrifuged for 10 min, 4° C., 14,000×g. Supernatant was gently removed and snap frozen in liquid nitrogen. Protein concentration of the lysate was determined using Bradford Reagent (analyzed using SpectraMax M2E) and diluted to 1 mg/mL or pERK or 1.5 mg/mL for pMEK analysis. […] All dilutions were in Milk-free antibody diluent.
A549 or […] cells were treated in duplicate for two hours with compounds at varying concentrations. After two hours, the cells were lysed, snap frozen, and stored at −80° C. After storage, the lysate was quantified with the Bradford assay. Before the lysates were prepared to run on the Jess, the lysates were diluted to 1 mg/mL for pERK analysis and 1.5 mg/mL pMEK analysis using quantitative Western blotting. ERK and MEK phosphorylation levels were estimated by taking the ratio of phospho-protein to total protein and normalizing to the DMSO control.
as §5

Data set [6] concerns phospho-MEK in Hs852.T cells. The data set can be described thus: pMEK/tMEK ratio in Hs852.T melanoma model. The class given is cell-based. As to conditions: Hs852.T (NRAS p.G12V); 100 nM. On the procedure: as §1, §2, §3, §4, §5
Data set [7] relates to phospho-MEK in MEL-JUSO cells. Briefly: pMEK/tMEK ratio in MEL-JUSO melanoma model. The class given is cell-based. Particulars: MEL-JUSO (HRAS p.G13D, NRAS p.Q61L); 100 nM. The method, then: as §1, §2, §3, §4, §5
Data set [8] concerns phospho-ERK in MM415 cells. The data set can be described thus: pERK/tERK ratio in MM415 melanoma model. The data set is classed as cell-based. As to conditions: MM415 (NRAS p.Q61L); 100 nM. On the procedure: as §1, §2, §3, §4, §5
Data set [9] relates to phospho-MEK in A375 cells. The data set can be described thus: pMEK/tMEK ratio in A375 melanoma model. The data set is classed as cell-based. Particulars: A375 (BRAF p.V600E); 100 nM. On the procedure: as §1, §2, §3, §4, §5
For data set [10] the following is noted: PubChem Compound Summary; cited from earlier work.
Data set [11] has as its system phospho-MEK in MeWo cells. Briefly: pMEK/tMEK ratio in MeWo melanoma model. The class given is cell-based. As to conditions: MeWo (NF1 LoF); 100 nM. On the procedure: as §1, §2, §3, §4, §5
Data set [12] concerns phospho-ERK in SK-MEL-30 cells. The data set can be described thus: pERK/tERK ratio in SK-MEL-30 melanoma model. Particulars: SK-MEL-30 (NRAS p.Q61K); 100 nM. The data set is classed as cell-based. On the procedure:
as §1, §2, §3, §4, §5

Data set [13] concerns phospho-MEK in MM415 cells. The data set can be described thus: pMEK/tMEK ratio in MM415 melanoma model. The data set is classed as cell-based. Particulars: MM415 (NRAS p.Q61L); 100 nM. On the procedure: as §1, §2, §3, §4, §5
Data set [14] concerns phospho-MEK in SK-MEL-28 cells. Briefly: pMEK/tMEK ratio in SK-MEL-28 melanoma model. The class given is cell-based. Particulars: SK-MEL-28 (BRAF p.V600E); 100 nM. The method, then:
as §1, §2, §3, §4, §5

For data set [15], the system named is phospho-ERK in Hs852.T cells. Briefly: pERK/tERK ratio in Hs852.T melanoma model. Particulars: Hs852.T (NRAS p.G12V); 100 nM. The data set is classed as cell-based. On the procedure: as §1, §2, §3, §4, §5
Data set [16] has as its system phospho-ERK in MeWo cells. Briefly: pERK/tERK ratio in MeWo melanoma model. The data set is classed as cell-based. As to conditions: MeWo (NF1 LoF); 100 nM. On the procedure: as §1, §2, §3, §4, §5
Data set [17] relates to phospho-ERK in MEL-JUSO cells. The data set can be described thus: pERK/tERK ratio in MEL-JUSO melanoma model. As to conditions: MEL-JUSO (HRAS p.G13D, NRAS p.Q61L); 100 nM. The data set is classed as cell-based. The method, then:
as §1, §2, §3, §4, §5

For data set [18], the system named is phospho-ERK in SK-MEL-28 cells. The data set can be described thus: pERK/tERK ratio in SK-MEL-28 melanoma model. Particulars: SK-MEL-28 (BRAF p.V600E); 100 nM. The data set is classed as cell-based. On the procedure: as §1, §2, §3, §4, §5
Data set [19] concerns phospho-MEK in SK-MEL-30 cells. The data set can be described thus: pMEK/tMEK ratio in SK-MEL-30 melanoma model. The data set is classed as cell-based. As to conditions: SK-MEL-30 (NRAS p.Q61K); 100 nM. The method, then:
as §1, §2, §3, §4, §5

Turning to `Cn1cnc2c(F)c(Nc3ccc(Br)cc3F)c(C(=O)NOCCO)cc21` [Binimetinib], the “pERK/tERK ratio normalized to DMSO” value in [1] worked out at 0.125; in data set [4], 0.199; in [5] it was 0.136; in data set [8], 0.056; in data set [12], 0.082; in [15] it was 0.203. For the same molecule, the “pERK/tERK ratio normalized to DMSO” value came out at 0.161 in data set [16], 0.139 in data set [17] and 0.079 in data set [18]. For the same molecule, the “pMEK/tMEK ratio normalized to DMSO” value in data set [2] was 2.587; in data set [3], 3.009; in data set [6], 6.489; in data set [7], 3.291; in data set [9], 1.062; in data set [11], 7.42. Also, the “pMEK/tMEK ratio normalized to DMSO” value in data set [13] was found to be 3.055; in [14] it was 1.055; in data set [19] it was 2.649. For the same molecule, the “human plasma drug half-life” value in [10] was 3.5 h.
